In the supplement of paper PMC11208160:

Test: recombinant barcode read abundance after kanamycin selection (control-corrected) (log10(CPM+1)); higher = more efficient recombination; sequences stand for … in AGTGCAGAGAAAATCGGCCAGTTTTCTCTGCCTGCAGTCCGCATGCCGT…AGATTTATGCAGCGGACTGCCTTTCTCCCAAAGTGATAAACCGGACAGTATCATGGACCGGTTTTCCCGGTAATCCGTATTTGCAAGGTTGGTTTCACT; site = the 11-nt target
Experimental: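 Pooled E. coli target-specificity screen for the IS621 bridge recombinase. Each library plasmid pairs an 11-nt target (CT core) with a bridge RNA whose target-binding loop (9-nt LTG + 4-nt RTG) is reprogrammed; the rest of the 177-nt WT IS621 bridge RNA scaffold is fixed. The plasmid is co-electroporated with a WT donor plasmid; recombinase is induced with 0.1 mM IPTG and recombinants are selected on kanamycin. Recombinant barcodes are sequenced, converted to CPM, averaged over two biological replicates and corrected by the unselected control CPM. Molecule = full bridge RNA written as DNA: LTG = specificity nt 1-9, RTG = reverse complement of specificity nt 8-11, in the WT scaffold.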
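Note: IS621 recombinase and bridge RNA in Escherichia coli cells.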

Sequence	recombinant barcode read abundance (log10)
AATAACTCTTGGGTTCTAACCTGTTGCCT (site TATAACTCTAG)	0.139
AATAAGTCTTGGGTTCTAACCTGTTGCCT (site AATAAGTCTAG)	0.483
AATAAGTCTTGGGTTCTAACCTGTTGCCT (site ACTAAGTCTAG)	0.0757
AATAAGTCTTGGGTTCTAACCTGTTGCCT (site AGTAAGTCTAG)	0.566
AATAAGTCTTGGGTTCTAACCTGTTGCCT (site ATTAAGTCTAG)	0.122
AATAGAGCTTGGGTTCTAACCTGTTGCAG (site AAGTGAGCTCT)	0.0557
AATAGAGCTTGGGTTCTAACCTGTTGCAG (site AATAGAGCTCT)	2.23
AATAGGACTTGGGTTCTAACCTGTTGCTA (site AATAAGACTTG)	0.0927
AATAGGACTTGGGTTCTAACCTGTTGCTA (site AATAGGACTTA)	0.896
AATAGGGCTTGGGTTCTAACCTGTTGCGG (site AATAGGGCTCC)	2.21
AATAGGGCTTGGGTTCTAACCTGTTGCGG (site ACTAGGGCTCC)	0.294
AATCGGCCTTGGGTTCTAACCTGTTGCGT (site AATAGGCCTAC)	0.375
AATCGGCCTTGGGTTCTAACCTGTTGCGT (site AATCGGCCTAC)	1.85
AATCGGCCTTGGGTTCTAACCTGTTGCGT (site AATGGGCCTAC)	0.0625
AATCGGCCTTGGGTTCTAACCTGTTGCGT (site AATTGGCCTAC)	0.175
AATGCTACTTGGGTTCTAACCTGTTGCAT (site AATGCTACTAT)	0.235
AATGCTACTTGGGTTCTAACCTGTTGCAT (site TATGCTACTAT)	0.238
AATGCTCCTTGGGTTCTAACCTGTTGCGT (site AATGCTCCTAA)	0.116

Sequence	recombinant barcode read abundance (log10)
AATGCTCCTTGGGTTCTAACCTGTTGCGT (site AATGCTCCTAC)	2.03
AATGCTCCTTGGGTTCTAACCTGTTGCGT (site AATGCTCCTAG)	0.419
AATGCTCCTTGGGTTCTAACCTGTTGCGT (site AATGCTCCTAT)	0.177
AATGCTCCTTGGGTTCTAACCTGTTGCTT (site AATGCTCCTAA)	0.49
AATGCTCCTTGGGTTCTAACCTGTTGCTT (site AATGCTCCTAC)	0.0515
AATGCTCCTTGGGTTCTAACCTGTTGCTT (site AATGCTCCTAG)	0.103
AATGCTCCTTGGGTTCTAACCTGTTGCTT (site AATGCTCCTAT)	0.135
AATGCTTCTTGGGTTCTAACCTGTTGCTT (site AATGCTTCTAA)	0.398
AATGCTTCTTGGGTTCTAACCTGTTGCTT (site GATGCTTCTAA)	0.143
AATGGGACTTGGGTTCTAACCTGTTGCGA (site AATGGGACTCA)	0.331
AATGGGACTTGGGTTCTAACCTGTTGCGA (site AATGGGACTTC)	2.42
AATGGGACTTGGGTTCTAACCTGTTGCTG (site AATGGGACTCA)	2.47
AATGGGACTTGGGTTCTAACCTGTTGCTG (site AATGGGACTTC)	1.55
AATGGTCCTTGGGTTCTAACCTGTTGCCA (site AATGGTCCTTG)	0.588
AATGGTCCTTGGGTTCTAACCTGTTGCCA (site CTAATATCTAT)	0.337
AATTAGTCTTGGGTTCTAACCTGTTGCGG (site AATTAGTCTCC)	2.2
AATTAGTCTTGGGTTCTAACCTGTTGCGG (site AGTTAGTCTCC)	0.312
AATTGAGCTTGGGTTCTAACCTGTTGCCT (site AATTAAGCTAG)	0.0773
